Test results: US12570648B2, “6,7-dihydro-5H-pyrido[2,3-c]pyridazine derivatives and related compounds as Bcl-xL protein inhibitors and pro-apoptotic agents for treating cancer” (LES LABORATOIRES SERVIER, priority 2019, dated 2026)

Key:
MOLT-4 cells = assay: MOLT-4 cell viability using MTT assay; type: cell-based; conditions: 48 h exposure
Experimental: MTT colorimetric assay is based on the mitochondrial reduction of tetrazolium salt by living cells.
Cells were cultured at 37° C. in a humidified atmosphere containing 5% CO2. […] At the end of incubation time, 15 μL of MTT solution (5 mg/ml) were added per well and the cells were incubated for another 4 h. […] IC50s were calculated using standard four-parametric curve fitting.

[1] = biological target: His-His-(EK)-hsBCLXL(2-197)[N197C] (Homo sapiens (Human), UniProt Q07817, N197C); assay: Fluorescence quenching assay; type: binding; conditions: 1 nM Cy5-labelled protein, 400 nM PUMA peptide, 2 hours at 23° C.; KI determined from IC50
Sequence of His-His-(EK)-hsBCLXL(2-197)[N197C] (Q07817 2-197 N197C): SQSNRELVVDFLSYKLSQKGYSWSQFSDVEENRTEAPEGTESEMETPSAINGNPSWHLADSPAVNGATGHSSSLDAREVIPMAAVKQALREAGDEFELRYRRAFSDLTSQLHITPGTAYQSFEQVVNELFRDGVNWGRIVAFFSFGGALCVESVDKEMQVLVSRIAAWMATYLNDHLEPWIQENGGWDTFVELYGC
Excerpt: Fluorescence quenching assay measures the change in fluorescence intensity of C-terminally Cy5-labelled BCL-xL protein, His-His-(EK)-hsBCLXL(2-197)[N197C] (UniProtKB®
which is linked in C-terminal region to the amino acid X which corresponds to a cysteine labelled on the sulfur with Sulfo-Cyanine5 from Lumiprobe GmbH catalogue number 13380, upon binding of a C-terminally labelled peptide derived from PUMA (UniProtKB® primary accession number Q9BXH1) having an aminoacid sequence (SEQ ID:04): [[…]] which is linked in C-terminal region to the amino acid X′ where X′ is cysteine labelled on the sulfur with TQ5WS from AAT Bioquest catalogue number 2079.
The addition of a compound which binds competitively to the same site as the peptide will result in an increase in the fluorescence intensity of the protein due to displacement of the fluorescence quencher.
An 11-point serial dilution of each compound was prepared in DMSO, the final buffer conditions were 10 mM 4-(2-hydroxyethyl)-1-piperazineethanesulfonic acid [HEPES], 150 mM NaCl, 0.05% Tween 20, pH 7.4 and 5% DMSO. The final protein concentration in the assay was 1 nM with the peptide present at 400 nM. The experiments were incubated for 2 hours at 23° C. before fluorescence intensity was measured on a Biotek SynergyNeo plate reader (Excitation 620 nm, emission 680 nm). […] The K1 values were determined from the IC50 values according to Cer et al, Nucleic Acids Res, 2009, Jul. 1; 37 (WebServer issue): W441-W445.

`Cc1c(Nc2nc3ccccc3s2)nnc2c1CCCN2c1ccc(-c2cnn(CC34CC5(C)CC(C)(C3)CC(OCCNCCC(O)CO)(C5)C4)c2C)c(C(=O)O)n1` (stereo in doubt) [Example 92, 6-{3-[(1,3-benzothiazol-2-yl)amino]-4-methyl-6,7-dihydropyrido[2,3-c]pyridazin-8(5H)-yl}-3-(1-{[3-(2-{[(3S)-3,4-dihydroxybutyl]amino}ethoxy)-5,7-dimethyladamantan-1-yl]methyl}-5-methyl-1H-pyrazol-4-yl)pyridine-2-carboxylic acid] gave an IC50 (MOLT-4 cells) of 4.58 nM and a Ki [1] of 0.0017 nM.
Work on `CNCCCc1ccc(OCCCc2sc(N3CCCc4c3nnc(Nc3nc5ccccc5s3)c4C)nc2C(=O)O)c(F)c1` [Example 34, 2-{3-[(1,3-Benzothiazol-2-yl)amino]-4-methyl-5H,6H,7H,8H-pyrido[2,3-c]pyridazin-8-yl}-5-(3-{2-fluoro-4-[3-(methylamino)propyl]phenoxy}propyl)-1,3-thiazole-4-carboxylic acid] yielded a Ki [1] of 0.0019 nM.
`Cc1c(Nc2nc3ccccc3s2)nnc2c1CCCN2c1nc(C(=O)O)c(CCCOc2ccc(CCCN3CCCC3)cc2F)s1` [Example 69, 2-[3-(1,3-Benzothiazol-2-ylamino)-4-methyl-6,7-dihydro-5H-pyrido[2,3-c]pyridazin-8-yl]-5-[3-[2-fluoro-4-(3-pyrrolidin-1-ylpropyl)phenoxy]propyl]thiazole-4-carboxylic acid] showed an IC50 (MOLT-4 cells; Homo sapiens, MOLT-4, 48 h) of 4.11 nM and a Ki [1] of 0.0037 nM.
For `Cc1c(Nc2nc3ccccc3s2)nnc2c1CCCN2c1nc(C(=O)O)c(CCCOc2ccc(CCCN3C[C@@H]4[C@H](C3)C4(F)F)cc2F)s1` [Example 72, 2-[3-(1,3-Benzothiazol-2-ylamino)-4-methyl-6,7-dihydro-5H-pyrido[2,3-c]pyridazin-8-yl]-5-[3-[4-[3-[(1R,5S)-6,6-difluoro-3-azabicyclo[3.1.0]hexan-3-yl]propyl]-2-fluoro-phenoxy]propyl]thiazole-4-carboxylic acid], the IC50 (MOLT-4 cells; Homo sapiens, MOLT-4, 48 h) was 13.9 nM and the Ki [1] was 0.08 nM.
In the case of `Cc1c(Nc2nc3ccccc3s2)nnc2c1CCCN2c1nc(C(=O)O)c(CCCOc2cc3c(cc2F)CN(C)CC3)s1` [Example 74, 2-{3-[(1,3-Benzothiazol-2-yl)amino]-4-methyl-5H,6H,7H,8H-pyrido[2,3-c]pyridazin-8-yl}-5-{3-[(7-fluoro-2-methyl-1,2,3,4-tetrahydroisoquinolin-6-yl)oxy]propyl}-1,3-thiazole-4-carboxylic acid], the Ki [1] is reported as 0.01 nM.
`CNCCCCc1ccc(OCCCc2sc(N3CCCc4c3nnc(Nc3nc5ccccc5s3)c4C)nc2C(=O)O)c(F)c1` [Example 75, 2-{3-[(1,3-Benzothiazol-2-yl)amino]-4-methyl-5H,6H,7H,8H-pyrido[2,3-c]pyridazin-8-yl}-5-(3-{2-fluoro-4-[4-(methylamino)butyl]phenoxy}propyl)-1,3-thiazole-4-carboxylic acid] showed an IC50 (MOLT-4 cells; Homo sapiens, MOLT-4, 48 h) of 9.78 nM and a Ki [1] of 0.0033 nM.
In the case of `Cc1c(Nc2nc3ccccc3s2)nnc2c1CCCN2c1nc(C(=O)O)c(CCCOc2ccc(C#CCNCCN(C)C)cc2F)s1` [Example 76, 2-[3-(1,3-Benzothiazol-2-ylamino)-4-methyl-6,7-dihydro-5H-pyrido[2,3-c]pyridazin-8-yl]-5-[3-[4-[3-[2-(dimethylamino)ethylamino]prop-1-ynyl]-2-fluoro-phenoxy]propyl]thiazole-4-carboxylic acid], the IC50 (MOLT-4 cells; Homo sapiens, MOLT-4, 48 h) is reported as 0.74 nM and the Ki [1] is reported as 0.0018 nM.
`Cc1c(Nc2nc3ccccc3s2)nnc2c1CCCN2c1nc(C(=O)O)c(CCCOc2ccc(I)cc2F)s1` [Example 77, 2-[3-(1,3-Benzothiazol-2-ylamino)-4-methyl-6,7-dihydro-5H-pyrido[2,3-c]pyridazin-8-yl]-5-[3-(2-fluoro-4-iodo-phenoxy)propyl]thiazole-4-carboxylic acid] was tested, and the IC50 (MOLT-4 cells; Homo sapiens, MOLT-4, 48 h) was 226 nM and the Ki [1] was 0.17 nM.
In the case of `Cc1c(Nc2nc3ccccc3s2)nnc2c1CCCN2c1nc(C(=O)O)c(CCCOc2cc(C#CCN(C)C)ccc2F)s1` [Example 78, 2-[3-(1,3-Benzothiazol-2-ylamino)-4-methyl-6,7-dihydro-5H-pyrido[2,3-c]pyridazin-8-yl]-5-[3-[5-[3-(dimethylamino)prop-1-ynyl]-2-fluoro-phenoxy]propyl]thiazole-4-carboxylic acid], the IC50 (MOLT-4 cells; Homo sapiens, MOLT-4, 48 h) is reported as 2.46 nM and the Ki [1] is reported as 0.023 nM.
With `Cc1c(Nc2nc3ccccc3s2)nnc2c1CCCN2c1nc(C(=O)O)c(CCCOc2ccc(C#CCN3CCNCC3)cc2F)s1` [Example 79, 2-[3-(1,3-Benzothiazol-2-ylamino)-4-methyl-6,7-dihydro-5H-pyrido[2,3-c]pyridazin-8-yl]-5-[3-[2-fluoro-4-(3-piperazin-1-ylprop-1-ynyl)phenoxy]propyl]thiazole-4-carboxylic acid] the IC50 (MOLT-4 cells; Homo sapiens, MOLT-4, 48 h) was 1.01 nM and the Ki [1] was 0.0052 nM.
For `Cc1c(Nc2nc3ccccc3s2)nnc2c1CCCN2c1nc(C(=O)O)c(CCCOc2ccc(C#CCN(CC(C)C)CC(C)C)cc2F)s1` [Example 87, 2-[3-(1,3-Benzothiazol-2-ylamino)-4-methyl-6,7-dihydro-5H-pyrido[2,3-c]pyridazin-8-yl]-5-[3-[4-[3-(diisobutylamino)prop-1-ynyl]-2-fluoro-phenoxy]propyl]thiazole-4-carboxylic acid], the Ki [1] was 0.044 nM.
`Cc1c(Nc2nc3ccccc3s2)nnc2c1CCCN2c1ccc(-c2cnn(CC34CC5(C)CC(C)(C3)CC(OCCN(CCCO)CCCO)(C5)C4)c2C)c(C(=O)O)n1` [Example 137, 6-[3-(1,3-benzothiazol-2-ylamino)-4-methyl-6,7-dihydro-5H-pyrido[2,3-c]pyridazin-8-yl]-3-[1-[[3-[2-[bis(3-hydroxypropyl)amino]ethoxy]-5,7-dimethyl-1-adamantyl]methyl]-5-methyl-pyrazol-4-yl]pyridine-2-carboxylic acid] gave an IC50 (MOLT-4 cells; Homo sapiens, MOLT-4, 48 h) of 5.78 nM.
Compound `Cc1c(Nc2nc3ccccc3s2)nnc2c1CCCN2c1ccc(-c2cnn(CC34CC5(C)CC(C)(C3)CC(OCCNCCCO)(C5)C4)c2C)c(C(=O)O)n1` [Example 138, 6-[3-(1,3-benzothiazol-2-ylamino)-4-methyl-6,7-dihydro-5H-pyrido[2,3-c]pyridazin-8-yl]-3-[1-[[3-[2-(3-hydroxypropylamino)ethoxy]-5,7-dimethyl-1-adamantyl]methyl]-5-methyl-pyrazol-4-yl]pyridine-2-carboxylic acid] has an IC50 (MOLT-4 cells; Homo sapiens, MOLT-4, 48 h) of 1.01 nM.
Work on `Cc1c(Nc2nc3cc(O)ccc3s2)nnc2c1CCCN2c1ccc(-c2cnn(CC34CC5(C)CC(C)(C3)CC(OCCN3CCCC3)(C5)C4)c2C)c(C(=O)O)n1` [Example 152, 3-[1-[[3,5-dimethyl-7-(2-pyrrolidin-1-ylethoxy)-1-adamantyl]methyl]-5-methyl-pyrazol-4-yl]-6-[3-[(5-hydroxy-1,3-benzothiazol-2-yl)amino]-4-methyl-6,7-dihydro-5H-pyrido[2,3-c]pyridazin-8-yl]pyridine-2-carboxylic acid] yielded a Ki [1] of 0.0017 nM.
Work on `Cc1c(Nc2nc3ccccc3s2)nnc2c1CCCN2c1ccc(-c2cnn(CC34CC5CC(C3)CC(OCCN(C)C)(C5)C4)c2C)c(C(=O)O)n1` [Example 154, 6-[3-(1,3-benzothiazol-2-ylamino)-4-methyl-6,7-dihydro-5H-pyrido[2,3-c]pyridazin-8-yl]-3-[1-[[3-[2-(dimethylamino)ethoxy]-1-adamantyl]methyl]-5-methyl-pyrazol-4-yl]pyridine-2-carboxylic acid] yielded an IC50 (MOLT-4 cells; Homo sapiens, MOLT-4, 48 h) of 0.449 nM.
Compound `Cc1c(Nc2nc3ccccc3s2)nnc2c1CCCN2c1ccc(-c2cnn(CC34CC5CC(C3)CC(OCCN3CCCC3)(C5)C4)c2C)c(C(=O)O)n1` [Example 155, 6-[3-(1,3-benzothiazol-2-ylamino)-4-methyl-6,7-dihydro-5H-pyrido[2,3-c]pyridazin-8-yl]-3-[5-methyl-1-[[3-(2-pyrrolidin-1-ylethoxy)-1-adamantyl]methyl]pyrazol-4-yl]pyridine-2-carboxylic acid] has an IC50 (MOLT-4 cells; Homo sapiens, MOLT-4, 48 h) of 0.543 nM.
Work on `Cc1c(Nc2nc3ccccc3s2)nnc2c1CCCN2c1ccc(-c2cnn(CC34CC5CC(C3)CC(OCCNCC[C@H](O)CO)(C5)C4)c2C)c(C(=O)O)n1` [Example 160, 6-[3-(1,3-benzothiazol-2-ylamino)-4-methyl-6,7-dihydro-5H-pyrido[2,3-c]pyridazin-8-yl]-3-[1-[[3-[2-[[(3S)-3,4-dihydroxybutyl]amino]ethoxy]-1-adamantyl]methyl]-5-methyl-pyrazol-4-yl]pyridine-2-carboxylic acid] yielded an IC50 (MOLT-4 cells; Homo sapiens, MOLT-4, 48 h) of over 100 nM.
With `COc1ccc2sc(Nc3nnc4c(c3C)CCCN4c3ccc(-c4cnn(CC56CC7(C)CC(C)(C5)CC(OCCN5CCCC5)(C7)C6)c4C)c(C(=O)O)n3)nc2c1` [Example 180, 3-[1-[[3,5-dimethyl-7-(2-pyrrolidin-1-ylethoxy)-1-adamantyl]methyl]-5-methyl-pyrazol-4-yl]-6-[3-[(5-methoxy-1,3-benzothiazol-2-yl)amino]-4-methyl-6,7-dihydro-5H-pyrido[2,3-c]pyridazin-8-yl]pyridine-2-carboxylic acid] the IC50 (MOLT-4 cells; Homo sapiens, MOLT-4, 48 h) was 0.13 nM.
